The text below walks through data of PubChem BioAssay AID1259407 (Chemical Carcinogenesis Research Information System (CCRIS), 2018).

The test system of this series is CCRIS mutagenicity, Ames/micronucleus/aberration tests. In words: CCRIS mutagenicity studies.
The mark [1] stands for this setting: Test System: AMES SALMONELLA TYPHIMURIUM, Strain/Indicator: TA100, Metabolic Activation: NONE, Method: STANDARD PLATE.

The source made the active and inactive calls. No rule for the calls is given here.

With `C1=COc2c(c3cc4ccccc4cc3c3ccccc23)C=C1`, the mutagenic call (Test System: AMES SALMONELLA TYPHIMURIUM, Strain/Indicator: TA100, Metabolic Activation: RAT, LIVER, S-9, AROCLOR 1254, Method: PREINCUBATION) is “active; positive”.

On to `Oc1cc(O)c2c(c1)O[C@H](c1cc(O)c(O)c(O)c1)[C@H](O)C2`, for which the mutagenic call is, setting by setting: (End Point: In vitro chromosomal aberrations, Test System: Chinese hamster (CHL/IU) cells, Metabolic Activation: None) “active; positive (structural changes: gaps, breaks, aberrations)”; (Test System: Ames Salmonella typhimurium, Strain/Indicator: TA102, Metabolic Activation: None, Method: Preincubation) “inactive; negative”; (Test System: Ames Salmonella typhimurium, Strain/Indicator: TA102, Metabolic Activation: Rat, Liver, S-9, Aroclor 1254 in 0.154 M KCl, Method: Preincubation) “inactive; negative”; (Test System: E. coli, Strain/Indicator: WP2 uvrA/pKM101, Metabolic Activation: None, Method: Preincubation) “inactive; negative”.

As to `O=NN(c1ccc([N+](=O)[O-])cc1)C1OC[C@H](O)[C@H](O)[C@H]1O` (some centres not stated), the mutagenic call under setting [1] was “active; positive”.

As for `CCCCCC`, the mutagenic call was “inactive; negative” (Test System: AMES SALMONELLA TYPHIMURIUM, Strain/Indicator: TA97, Metabolic Activation: NONE, Method: PREINCUBATION); “inactive; negative” (Test System: AMES SALMONELLA TYPHIMURIUM, Strain/Indicator: TA97, Metabolic Activation: RAT, LIVER, S-9, AROCLOR 1254, Method: PREINCUBATION); “inactive; negative” (Test System: AMES SALMONELLA TYPHIMURIUM, Strain/Indicator: TA98, Metabolic Activation: HAMSTER, LIVER, S-9, AROCLOR 1254 (10%), Method: PREINCUBATION); “inactive; negative” (Test System: AMES SALMONELLA TYPHIMURIUM, Strain/Indicator: TA98, Metabolic Activation: NONE, Method: PREINCUBATION); “inactive; negative” (Test System: AMES SALMONELLA TYPHIMURIUM, Strain/Indicator: TA98, Metabolic Activation: RAT, LIVER, S-9, AROCLOR 1254 (10%), Method: PREINCUBATION); “inactive; negative” (Test System: AMES SALMONELLA TYPHIMURIUM, Strain/Indicator: TA100, Metabolic Activation: HAMSTER, LIVER, S-9, AROCLOR 1254 (10%), Method: PREINCUBATION). Besides, the mutagenic call is, setting by setting: (Test System: AMES SALMONELLA TYPHIMURIUM, Strain/Indicator: TA100, Metabolic Activation: NONE, Method: PREINCUBATION) “inactive; negative”; (Test System: AMES SALMONELLA TYPHIMURIUM, Strain/Indicator: TA100, Metabolic Activation: RAT, LIVER, S-9, AROCLOR 1254 (10%), Method: PREINCUBATION) “inactive; negative”; (Test System: AMES SALMONELLA TYPHIMURIUM, Strain/Indicator: TA102, Metabolic Activation: NONE, Method: PREINCUBATION) “inactive; negative”; (Test System: AMES SALMONELLA TYPHIMURIUM, Strain/Indicator: TA102, Metabolic Activation: RAT, LIVER, S-9, AROCLOR 1254, Method: PREINCUBATION) “inactive; negative”; (Test System: AMES SALMONELLA TYPHIMURIUM, Strain/Indicator: TA1535, Metabolic Activation: HAMSTER, LIVER, S-9, AROCLOR 1254 (10%), Method: PREINCUBATION) “inactive; negative”; (Test System: AMES SALMONELLA TYPHIMURIUM, Strain/Indicator: TA1535, Metabolic Activation: NONE, Method: PREINCUBATION) “inactive; negative”. The mutagenic call by setting is: (Test System: AMES SALMONELLA TYPHIMURIUM, Strain/Indicator: TA1535, Metabolic Activation: RAT, LIVER, S-9, AROCLOR 1254 (10%), Method: PREINCUBATION) “inactive; negative”; (Test System: AMES SALMONELLA TYPHIMURIUM, Strain/Indicator: TA1537, Metabolic Activation: HAMSTER, LIVER, S-9, AROCLOR 1254 (10%), Method: PREINCUBATION) “inactive; negative”; (Test System: AMES SALMONELLA TYPHIMURIUM, Strain/Indicator: TA1537, Metabolic Activation: NONE, Method: PREINCUBATION) “inactive; negative”; (Test System: AMES SALMONELLA TYPHIMURIUM, Strain/Indicator: TA1537, Metabolic Activation: RAT, LIVER, S-9, AROCLOR 1254 (10%), Method: PREINCUBATION) “inactive; negative”.

As to `CC(=O)OC[C@]12CCC(C)=C[C@H]1O[C@@H]1[C@H](O)[C@@H](OC(C)=O)[C@@]2(C)[C@]12CO2`, the mutagenic call reads like this: (Test System: AMES SALMONELLA TYPHIMURIUM, Strain/Indicator: TA98, Metabolic Activation: RAT, LIVER, MICROSOMES, PHENOBARBITAL, Method: STANDARD PLATE) “inactive; negative”; under setting [1], “inactive; negative”; (Test System: AMES SALMONELLA TYPHIMURIUM, Strain/Indicator: TA100, Metabolic Activation: RAT, LIVER, MICROSOMES, PHENOBARBITAL, Method: STANDARD PLATE) “inactive; negative”.

On to `CCCCOc1cc2c(c3ccc4ccccc4c13)CCC2=O`, for which the mutagenic call (Test System: AMES SALMONELLA TYPHIMURIUM, Strain/Indicator: TA100, Metabolic Activation: RAT, LIVER, S-9, AROCLOR 1254, Method: STANDARD PLATE) was “inactive; negative”.

`CCN(CCCl)CCCNc1c2ccccc2nc2c1ccc1cccnc12`: the mutagenic call by setting is: (Test System: AMES SALMONELLA TYPHIMURIUM, Strain/Indicator: TA98, Metabolic Activation: NONE, Method: STANDARD PLATE) “active; positive”; under setting [1], “active; positive”; (Test System: AMES SALMONELLA TYPHIMURIUM, Strain/Indicator: TA1535, Metabolic Activation: NONE, Method: STANDARD PLATE) “inactive; negative”; (Test System: AMES SALMONELLA TYPHIMURIUM, Strain/Indicator: TA1536, Metabolic Activation: NONE, Method: STANDARD PLATE) “active; positive”; (Test System: AMES SALMONELLA TYPHIMURIUM, Strain/Indicator: TA1537, Metabolic Activation: NONE, Method: STANDARD PLATE) “active; positive”; (Test System: AMES SALMONELLA TYPHIMURIUM, Strain/Indicator: TA1538, Metabolic Activation: NONE, Method: STANDARD PLATE) “active; positive”.
